Reference: US5030732A, “Aminoethylphosphinic acid derivatives” (Merck & Co., Inc., priority 1988, dated 1991)
Converted amounts (≈) assume the structure as drawn.

Columns and labels:
[1] = test system: racemase; conditions: in words; literature; formed by bacterial peptidase; cited from earlier work
[2] = test system: E. coli; assay: Antibacterial activity, MIC by Method 1 (method of Atherton et al); type: cell-based; conditions: for MIC: Escherichia coli, read-out: Minimum inhibiting concentration (MIC)
Protocol: (§1) Antibacterial activity was tested by two methods.
(§2) Minimum inhibiting concentration (MIC, μg/ml) was determined by the method of Atherton et al (Antimicrobial Agent and Chemotherapy 15, 677, 1979).
(§3) Antibacterial activity: MIC (μ g/ml) [by Method 1]

[3] = test system: Serratia marcescens; assay: as above; type: cell-based; conditions: for MIC: read-out: Minimum inhibiting concentration (MIC)
Protocol: as §1, §2, §3

[4] = test system: E. coli DC 2; assay: as above; type: cell-based; conditions: for MIC: Escherichia coli, DC2, read-out: Minimum inhibiting concentration (MIC)
Protocol: as §1, §2, §3

[5] = test system: Salmonella typhimurium; assay: as above; type: cell-based; conditions: for MIC: Salmonella enterica, read-out: Minimum inhibiting concentration (MIC)
Protocol: as §1, §2, §3

[6] = test system: Pseudomonas aeruginosa; assay: as above; type: cell-based; conditions: for MIC: read-out: Minimum inhibiting concentration (MIC)
Protocol: as §1, §2, §3

[7] = as above; type: cell-based; conditions: Enterococcus cloacae, read-out: Minimum inhibiting concentration (MIC)
Protocol: as §1, §2, §3

[8] = test system: Proteus vulgaris; assay: as above; type: cell-based; conditions: for MIC: read-out: Minimum inhibiting concentration (MIC)
Protocol: as §1, §2, §3

[9] = test system: E. coli TEM 2; assay: as above; type: cell-based; conditions: for MIC: Escherichia coli, TEM2, read-out: Minimum inhibiting concentration (MIC)
Protocol: as §1, §2, §3

[10] = test system: Streptococcus faecalis; assay: as above; type: cell-based; conditions: for MIC: Enterococcus faecalis, read-out: Minimum inhibiting concentration (MIC)
Protocol: as §1, §2, §3

[11] = test system: Staphylococcus aureus; assay: as above; type: cell-based; conditions: for MIC: read-out: Minimum inhibiting concentration (MIC)
Protocol: as §1, §2, §3

[12] = test system: Klebsiella pneumoniae; assay: as above; type: cell-based; conditions: for MIC: read-out: Minimum inhibiting concentration (MIC)
Protocol: as §1, §2, §3

[13] = test system: bacterial cell wall synthesis; conditions: in words; literature; cited from earlier work
[14] = test system: Enterococcus cloacae; assay: Antibacterial activity, MIC by Method 1 (method of Atherton et al); type: cell-based
Protocol: as §1, §2, §3

Compound	MIC [2] [µg/mL]	MIC [3] [µg/mL]	MIC [4] [µg/mL]	MIC [5] [µg/mL]	MIC [6] [µg/mL]	MIC [7] [µg/mL]	MIC [8] [µg/mL]	MIC [9] [µg/mL]	MIC [10] [µg/mL]	MIC [11] [µg/mL]	MIC [12] [µg/mL]	also measured
CC(N)P(=O)(O)O (stereo not drawn) [1-aminoethylphosphonic acid]												inhibition of racemase activity [1]: inhibiting racemase activity
CCC[C@H](N)C(=O)NC(CP(=O)(O)C(C)N)C(=O)O (stereo partly drawn) [Compound No. 6-1, (1-Aminoethyl)(2-L-norvalylamino-2-carboxyethyl)phosphinic acid]	16 (≈ 54.2 µM)	> 256	16 (≈ 54.2 µM)	128 (≈ 433 µM)	> 256	64 (≈ 217 µM)	1 (≈ 3.39 µM)	256 (≈ 867 µM)	16 (≈ 54.2 µM)	32 (≈ 108 µM)		
CSCC[C@H](N)C(=O)NC(CP(=O)(O)C(C)N)C(=O)O (stereo partly drawn) [Compound No. 10, (1-Aminoethyl)(2-L-methionylamino-2-carboxyethyl)phosphinic acid]	64 (≈ 196 µM)	> 256	32 (≈ 97.8 µM)	> 256	> 256	256 (≈ 782 µM)	8 (≈ 24.4 µM)	256 (≈ 782 µM)	2 (≈ 6.11 µM)	4 (≈ 12.2 µM)	> 256	
CCC[C@H](NC(=O)[C@H](C)N)C(=O)NC(CP(=O)(O)C(C)N)C(=O)O (stereo partly drawn) [Compound No. 20, (1-Aminoethyl)(2-L-alanyl-L-norvalylamino-2-carboxyethyl)phosphinic acid]	0.5 (≈ 1.36 µM)	0.5 (≈ 1.36 µM)	≤ 0.25	0.5 (≈ 1.36 µM)	256 (≈ 699 µM)	0.5 (≈ 1.36 µM)	0.5 (≈ 1.36 µM)	≤ 0.25	≤ 0.25	256 (≈ 699 µM)	≤ 0.25	
CC(N)C(=O)NC(C)P(=O)(O)O (stereo not drawn) [alaphosphalin]												antibacterial action / inhibition of bacterial cell wall synthesis [13]: antibacterial action
(D-1-aminoethyl)(2-L-nor-valylamino -2-L- or -D-carboxyethyl)phosphinic acid [6-2]												Minimum inhibiting concentration (MIC) [2]: 8 µg/mL; Minimum inhibiting concentration (MIC) [12]: 64 µg/mL; Minimum inhibiting concentration (MIC) [3]: 128 µg/mL; Minimum inhibiting concentration (MIC) [4]: 4 µg/mL; Minimum inhibiting concentration (MIC) [5]: 32 µg/mL; Minimum inhibiting concentration (MIC) [6]: > 256 µg/mL; Minimum inhibiting concentration (MIC) [14]: 16 µg/mL; Minimum inhibiting concentration (MIC) [8]: 1 µg/mL; Minimum inhibiting concentration (MIC) [9]: 64 µg/mL; Minimum inhibiting concentration (MIC) [10]: 1 µg/mL; Minimum inhibiting concentration (MIC) [11]: 8 µg/mL
